Measured values from US20160108406A1, “METHOD OF REGULATING CFTR EXPRESSION AND PROCESSING” (UNIVERSITY OF IOWA RESEARCH FOUNDATION, priority 2014, published 2016).

Key:
ΔF508-CFTR [1] = target: T1, ΔF508-CFTR (Homo sapiens, UniProt P13569, DEL508-508); assay: CFTR ubiquitination measurement (anti-HA IP, anti-ubiquitin blot); type: cell-based; details: treatment alone; HeLa-ΔF508-CFTR-HA cells; 72 hrs; MG-132 10 μM last hour; relative to siScr
T1 construct: Here we studied native CFTR, SYVN1 and AMFR gene products in a relevant CF airway epithelial cell line; endogenous in cells; host or cells: CFBE41o- cells (also as polarized ALI cultures)
T1 sequence (P13569 with tags, fused parts or gaps DEL508-508): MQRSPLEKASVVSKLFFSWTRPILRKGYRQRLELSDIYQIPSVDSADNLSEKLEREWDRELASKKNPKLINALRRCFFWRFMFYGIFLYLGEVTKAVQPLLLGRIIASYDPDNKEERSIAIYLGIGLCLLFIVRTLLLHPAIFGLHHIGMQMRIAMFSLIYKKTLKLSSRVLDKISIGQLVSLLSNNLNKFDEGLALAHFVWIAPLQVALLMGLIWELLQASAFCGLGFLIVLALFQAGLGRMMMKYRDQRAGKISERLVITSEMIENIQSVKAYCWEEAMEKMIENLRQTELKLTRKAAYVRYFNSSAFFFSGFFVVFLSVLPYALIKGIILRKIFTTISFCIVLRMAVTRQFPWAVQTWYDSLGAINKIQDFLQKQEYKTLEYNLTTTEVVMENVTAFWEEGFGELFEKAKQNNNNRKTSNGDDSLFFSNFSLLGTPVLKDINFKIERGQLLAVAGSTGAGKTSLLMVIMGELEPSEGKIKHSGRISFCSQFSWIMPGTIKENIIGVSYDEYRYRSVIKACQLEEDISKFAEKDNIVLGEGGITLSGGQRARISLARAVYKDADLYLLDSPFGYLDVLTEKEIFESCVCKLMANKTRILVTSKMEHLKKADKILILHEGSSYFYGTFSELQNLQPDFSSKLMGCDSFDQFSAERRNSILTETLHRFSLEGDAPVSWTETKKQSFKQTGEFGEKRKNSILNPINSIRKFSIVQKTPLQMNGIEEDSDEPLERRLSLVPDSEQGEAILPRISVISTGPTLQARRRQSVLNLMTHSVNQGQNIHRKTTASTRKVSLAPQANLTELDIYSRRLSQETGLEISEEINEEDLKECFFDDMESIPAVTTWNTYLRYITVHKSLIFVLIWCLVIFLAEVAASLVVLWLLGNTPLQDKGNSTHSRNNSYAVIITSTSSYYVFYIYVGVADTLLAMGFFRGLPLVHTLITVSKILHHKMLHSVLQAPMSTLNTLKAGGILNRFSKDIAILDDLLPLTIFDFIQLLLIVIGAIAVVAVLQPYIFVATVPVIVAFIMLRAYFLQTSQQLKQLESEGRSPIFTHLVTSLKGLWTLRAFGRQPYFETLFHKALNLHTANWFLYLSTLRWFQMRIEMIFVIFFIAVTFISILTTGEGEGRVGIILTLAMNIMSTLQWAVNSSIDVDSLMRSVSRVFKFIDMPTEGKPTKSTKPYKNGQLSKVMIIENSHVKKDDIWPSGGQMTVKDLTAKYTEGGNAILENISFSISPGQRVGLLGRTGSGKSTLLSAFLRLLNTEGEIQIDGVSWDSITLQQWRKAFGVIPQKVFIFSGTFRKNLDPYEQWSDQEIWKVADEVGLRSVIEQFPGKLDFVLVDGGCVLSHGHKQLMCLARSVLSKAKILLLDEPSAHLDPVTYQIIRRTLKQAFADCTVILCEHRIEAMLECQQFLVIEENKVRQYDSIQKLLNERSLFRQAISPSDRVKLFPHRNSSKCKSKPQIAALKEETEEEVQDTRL
Procedure: Cells were treated with 10 μM MG-132 in the last 1-hour of incubation, and then lysed in lysis buffer (1% Triton, 25 mM Tris pH 7.4, 150 mM NaCl, protease inhibitors (cOmplete™, mini, EDTA-free, Roche), 5 mM N-ethylmaleimide (NEM) and 20 μM MG-132) for 30 min at 4° C. The lysates were centrifuged at 14,000 rpm for 20 min at 4° C., and the supernatant quantified by BCA Protein Assay kit (Pierce). CFTR was precipitated with the anti-HA antibody. The immunoprecipitates were analyzed by immunoblotting with anti-Ub and anti-HA antibodies. CFTR ubiquitination level with molecular masses >180 kDa was measured by densitometry and normalized for the CFTR level in the precipitate.
Immunoprecipitation (IP) experiments were performed in HeLa cells stably expressing ΔF508-CFTR-HA. To IP ΔF508-CFTR, cells were lysed (as described above), and supernatant (20-50 μg of protein) was incubated with either anti-HA (to IP CFTR) or anti-AMFR for 1 h at 4° C., followed by incubation with protein G-agarose (Invitrogen) for 1 h at 4° C. Immunoprecipitates were washed 4 times with lysis buffer and eluted in 6× sample-SDS buffer. Samples were analyzed by immunoblotting as described above.

ΔF508-CFTR [2] = details: primary CF airway epithelia; reference 18; cited from earlier work

Q: For `O=C(Nc1ncc(C(c2ccccc2Cl)N2CCC(O)C2)s1)C1(c2ccc3c(c2)OCO3)CC1` (centres unmarked) [C18, 1-(benzo[d][1,3]dioxol-5-yl)-N-(5-((2-chlorophenyl)(3-hydroxypyrrolidin-1-yl)methyl)thiazol-2-yl)cyclopropanecarboxamide], which ΔF508-CFTR ubiquitination (ΔF508-CFTR [1]) is on record?
A: The ΔF508-CFTR ubiquitination was “little impact on ΔF508-CFTR ubiquitination levels”.

Q: With “miR-138 mimic: synthetic nucleic acid with miR-138-like activity, sense SEQ ID NO: 4, antisense SEQ ID NO: 5” as the compound, how does the “ΔF508-CFTR expression and Cl− transport” value (ΔF508-CFTR [2]) read?
A: The value was “concomitantly increased ΔF508-CFTR expression and Cl^− transport”.
